From ChEMBL document CHEMBL1201862, “PubChem BioAssay data set” (2004)
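Growth conditions: 96-well plates. Treatment: test compound, 48 hours, 5 concentrations. Analysis: linear interpolation between bracketing concentrations; unreached endpoints set to highest concentration. GI50 is the concentration that inhibits growth by half.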 The source made the active and inactive calls. Cut-off read from the data, not from the text of the source: active = GI50 up to about 1.1 µM and inactive = higher.

What was measured:
Assay in all cases: NCI tumour cell line growth inhibition, 48 h
[1] = system: MDA-N
[2] = system: MCF7
[3] = system: ACHN
[4] = system: SW-620
[5] = system: 786-0
[6] = system: HT-29
[7] = system: HCT-116
[8] = system: HCT-15
[9] = system: Malme-3M
[10] = system: Hs-578T
[11] = system: SNB-75
[12] = system: CCRF-CEM
[13] = system: OVCAR-8
[14] = system: OVCAR-3
[15] = system: IGROV-1
[16] = system: RXF 393
[17] = system: HCC 2998
[18] = system: T47D
[19] = system: A498
[20] = system: SK-MEL-2

COc1cc2c(cc1OC)CN1CCCc3cc(OC)c(OC)cc3C1C2 (configuration not stated)
GI50 [1]: 17.3 µM (inactive)
GI50 [2]: 31 µM (inactive)
GI50 [3]: 34.1 µM (inactive)
GI50 [4]: 30.5 µM (inactive)
GI50 [5]: 33.2 µM (inactive)
GI50 [6]: 19.6 µM (inactive)
GI50 [7]: 23.1 µM (inactive)
GI50 [8]: 41.6 µM
GI50 [9]: 30.3 µM (inactive)
GI50 [10]: 40.8 µM (inactive)
GI50 [11]: 13.2 µM (inactive)
GI50 [12]: 48.9 µM (inactive)
GI50 [13]: 57.7 µM (inactive)
GI50 [14]: 39.3 µM (inactive)
GI50 [15]: 22 µM (inactive)
GI50 [16]: 29.6 µM (inactive)
GI50 [17]: 33.7 µM (inactive)
GI50 [18]: 22.9 µM (inactive)

COC(=O)C1=C(C)NC(C)=C(C(=O)OC)C1c1nc2sccn2c1[N+](=O)[O-]
GI50 [2]: > 100 µM (inactive)
GI50 [3]: > 100 µM (inactive)
GI50 [4]: > 100 µM (inactive)
GI50 [5]: > 100 µM (inactive)
GI50 [7]: > 100 µM (inactive)
GI50 [8]: > 100 µM
GI50 [10]: > 100 µM (inactive)
GI50 [11]: > 100 µM (inactive)
GI50 [19]: > 100 µM (inactive)
GI50 [20]: > 100 µM (inactive)
GI50 [12]: > 100 µM (inactive)
GI50 [13]: 79.4 µM (inactive)
GI50 [14]: > 100 µM (inactive)
GI50 [16]: > 100 µM (inactive)
GI50 [17]: > 100 µM (inactive)
GI50 [18]: > 100 µM (inactive)

Cc1ccc(C2SC(=N)Nc3c2c(C)nn3C(=O)c2ccc(Cl)cc2)cc1 (configuration not stated)
GI50 [1]: > 10 µM (inactive)
GI50 [2]: > 10 µM (inactive)
GI50 [3]: > 10 µM (inactive)
GI50 [4]: > 10 µM (inactive)
GI50 [5]: > 10 µM (inactive)
GI50 [6]: > 10 µM (inactive)
GI50 [7]: > 10 µM (inactive)
GI50 [8]: > 10 µM
GI50 [9]: > 10 µM (inactive)
GI50 [10]: > 10 µM (inactive)
GI50 [11]: > 10 µM (inactive)
GI50 [20]: > 10 µM (inactive)
GI50 [12]: > 10 µM (inactive)
GI50 [13]: > 10 µM (inactive)
GI50 [14]: > 10 µM (inactive)
GI50 [15]: > 10 µM (inactive)
GI50 [16]: > 10 µM (inactive)
GI50 [17]: > 10 µM (inactive)
GI50 [18]: > 10 µM (inactive)

CN1CC2=C(N=C(S)NC2c2ccc(Cl)cc2)/C(=C/c2ccc(Cl)cc2)C1 (configuration not stated)
GI50 [1]: 19.7 µM (inactive)
GI50 [2]: 22 µM (inactive)
GI50 [3]: 23 µM (inactive)
GI50 [4]: 14.6 µM (inactive)
GI50 [5]: 24.4 µM (inactive)
GI50 [6]: 16.2 µM (inactive)
GI50 [7]: 15.7 µM (inactive)
GI50 [8]: 13.8 µM
GI50 [9]: 14.5 µM (inactive)
GI50 [10]: 16.6 µM (inactive)
GI50 [11]: 15.1 µM (inactive)
GI50 [19]: > 10 µM (inactive)
GI50 [20]: 13.3 µM (inactive)
GI50 [12]: 13.5 µM (inactive)
GI50 [13]: 17.5 µM (inactive)
GI50 [14]: 15.3 µM (inactive)
GI50 [15]: 16.1 µM (inactive)
GI50 [17]: 16.6 µM (inactive)
GI50 [18]: 15 µM (inactive)

Cc1ccc(SC2=C(N(C)C)C(=O)c3ccccc3C2=O)cc1
GI50 [2]: 2.31 µM (inactive)
GI50 [3]: 6.87 µM (inactive)
GI50 [4]: 1.46 µM (inactive)
GI50 [5]: 3.82 µM (inactive)
GI50 [6]: 6.27 µM (inactive)
GI50 [7]: 1.1 µM (active)
GI50 [8]: 2.45 µM
GI50 [9]: 4.83 µM (inactive)
GI50 [10]: 4.85 µM (inactive)
GI50 [11]: 12.1 µM (inactive)
GI50 [19]: 15.9 µM (inactive)
GI50 [20]: 9.73 µM (inactive)
GI50 [12]: 1.55 µM (inactive)
GI50 [13]: 1.91 µM (inactive)
GI50 [14]: 0.661 µM (active)
GI50 [15]: 4.95 µM (inactive)
GI50 [16]: 6.15 µM (inactive)
GI50 [17]: 14 µM (inactive)
GI50 [18]: 3.35 µM (inactive)

O=c1cc(CO)n(CCc2c[nH]c3ccccc23)cc1O
GI50 [1]: 21.3 µM (inactive)
GI50 [2]: 25.1 µM (inactive)
GI50 [3]: 66.5 µM (inactive)
GI50 [4]: > 100 µM (inactive)
GI50 [5]: 34.8 µM (inactive)
GI50 [6]: 34 µM (inactive)
GI50 [7]: 71.9 µM (inactive)
GI50 [8]: 51.2 µM
GI50 [9]: 13.4 µM (inactive)
GI50 [10]: 28.1 µM (inactive)
GI50 [20]: 30.1 µM (inactive)
GI50 [12]: 29.5 µM (inactive)
GI50 [13]: 69.7 µM (inactive)
GI50 [14]: 26.2 µM (inactive)
GI50 [15]: 86.5 µM (inactive)
GI50 [18]: 24.5 µM (inactive)

CCOc1cc(C(c2c(O)c3ccccc3oc2=O)c2c(O)c3ccccc3oc2=O)ccc1OC
GI50 [1]: 18.1 µM (inactive)
GI50 [2]: 21 µM (inactive)
GI50 [3]: 18 µM (inactive)
GI50 [4]: 35.4 µM (inactive)
GI50 [5]: 18.3 µM (inactive)
GI50 [6]: 24.2 µM (inactive)
GI50 [7]: 19.5 µM (inactive)
GI50 [8]: 21.3 µM
GI50 [9]: 19.8 µM (inactive)
GI50 [10]: 26.8 µM (inactive)
GI50 [19]: 19.6 µM (inactive)
GI50 [20]: 20.6 µM (inactive)
GI50 [12]: 22.1 µM (inactive)
GI50 [13]: 20 µM (inactive)
GI50 [14]: 16.3 µM (inactive)
GI50 [15]: 17.7 µM (inactive)
GI50 [18]: 16.1 µM (inactive)

Cn1c(-c2c(C3=CC(=O)N(c4ccccc4)C3=O)c3ccccc3n2C)cc2ccccc21
GI50 [1]: > 100 µM (inactive)
GI50 [2]: > 100 µM (inactive)
GI50 [3]: > 100 µM (inactive)
GI50 [4]: > 100 µM (inactive)
GI50 [5]: > 100 µM (inactive)
GI50 [6]: > 100 µM (inactive)
GI50 [7]: > 100 µM (inactive)
GI50 [8]: > 100 µM
GI50 [9]: 7.41 µM (inactive)
GI50 [11]: 55.8 µM (inactive)
GI50 [20]: > 100 µM (inactive)
GI50 [12]: 18.9 µM (inactive)
GI50 [13]: > 100 µM (inactive)
GI50 [14]: > 100 µM (inactive)
GI50 [15]: > 100 µM (inactive)
GI50 [16]: 4.4 µM (inactive)
GI50 [17]: > 100 µM (inactive)
GI50 [18]: > 100 µM (inactive)
